Data: patent EP4817425A1, “COMPOSITION AND SOLID MOLDED BODY” (Nagase & Co., Ltd., priority 2023, dated 2025)

Assay: Screening test of saccharides: thickness of tableted product tableted to hardness 5 N
Type: physicochemical
Settings: protein powder and saccharide weight ratio 1:1, tableted to hardness 5 N; compared among eight saccharides (Fig. 1)
Excerpt: The tableting characteristics of various saccharides were confirmed, and saccharides suitable for the production of a solid molded body were screened. First, 2.0 g each (within an error of 0.003 g) of a protein powder (WPC392 manufactured by Fonterra Japan Limited) and any one of the saccharides shown below were weighed and mixed to prepare a composition containing 50 parts by weight each of the protein and the saccharide (weight ratio 1:1). Each of the obtained compositions was tableted with the tableting force appropriately adjusted so that the composition would have a hardness of 5 N after being tableted. As a result, a tableted product having a hardness of 5 N was obtained. The thickness of the obtained tableted product was measured. Note that in the Examples, the thicknesses of a tableted product and a solid molded body are values each measured using a caliper (ABS digimatic caliper CD-AX, manufactured by Mitutoyo Corporation), and the hardnesses of a tableted product and a solid molded body are values each measured using a load cell type tablet hardness tester (PC-30 manufactured by OKADA SEIKO CO., LTD.).

thickness of the tableted product: largest thickness
SMILES: OC[C@H]1O[C@H](O[C@H]2[C@H](O)[C@@H](O)C(O)O[C@@H]2CO)[C@H](O)[C@@H](O)[C@@H]1O (mixture of isomers) [maltose, Maltose]
